Tested on: soybean rust
Test: Seed dressing trial, activity against soybean rust
Type: in vivo, soybean rust on soybean plants (cultivar BRS 133)
Details: soybean seeds cultivar BRS 133 treated with 1000 g orysastrobin/100 kg of seed (SC, 250 g/l, liquid dressing); inoculated 3 weeks after sowing; assessed 11 days after inoculation; untreated-seed plants 79% infected
Procedure: Seed dressing trial, activity against soybean rust
Soybean seeds of the cultivar BRS 133 were treated with 1000 g of orysastrobin/100 kg of seed, formulated as SC with 250 g of active compound per liter, as liquid dressing, then sown into pots and cultivated in a greenhouse at about 22° C. 3 weeks after sowing, the plants were inoculated with soybean rust, incubated at 100% relative atmospheric humidity for 24 hours and then again cultivated in the greenhouse. At the time of inoculation, the first pair of leaves and one subsequent leaf had developed. The infection of the leaves was assessed 11 days after the inoculation.

**Q.** With `CNC(=O)/C(=N/OC)c1ccccc1CO/N=C(C)/C(=N/OC)C(C)=NOC` (stereo in doubt) [orysastrobin, (2E)-2-(methoxyimino)-2-{2-[(3E,5E,6E)-5-(methoxyimino)-4,6-dimethyl-2,8-dioxa-3,7-diazanona-3,6-dien-1-yl]phenyl}-N-methylacetamide] as the molecule, how does the “total infection of the leaves” value read?
**A.** less than 1%

From patent US20080153824A1, “Method for Controlling Fungal Diseases in Leguminous Plants” (BASF Aktiengesellschaft, priority 2004, published 2008)
